Test results taken from patent US20260027118A1, “COMPOSITIONS USEFUL FOR MODULATING SPLICING” (Skyhawk Therapeutics, Inc., priority 2022, published 2026).

What was measured:
[1] = system: ATXN3 transcripts containing exon 4; test: ATXN3 Quantitative Splicing Assay (qPCR, E4E5 primers/probe); format: cell-based, Human; settings: Homo sapiens; SK-N-MC cells, treated with compounds for 24 h, qPCR of transcripts containing exon 4
Description: Human neuroblastoma SK-N-MC cells were plated in 384-well plates at 20,000 cells/well. Twenty-four hours after plating, cells were treated with compounds for 24 h at appropriate concentrations ranging from 30.M to 0.6 nM (0.300 DMS0). Treated cells were lysed in 15 μL of lysis buffer, and cDNA was synthesized using the Fast Advanced Cells-to-Ct kit. Two μL of each cDNA was used in qPCR reactions to confirm the exon 4 skipped transcripts of ATXN3. A second set of primers/probe E4E5 was used to detect the transcripts containing exon 4. The third set of primers/probe E8E9 was used to detect total gene level of ATXN3. The qPCR reactions were prepared in 384-well plates in 10 μL volume, using TaqMan™ Fast Advanced Master Mix with primers and probes shown in the table below. Reactions were run in a Quant Studio 6 qPCR instrument with default settings.
The primers and probes are listed below in Table 4.

[2] = system: total ATXN3 protein; test: ATXN3 total protein assay (Mesoscale Discovery); format: cell-based, Human; settings: SK-N-MC cells, 48 hours incubation, MSD assay
Description: Human neuroblastoma SK-N-MC cells were seeded at 10,000 cells/well in 384 well plates one day prior to compound treatment. The concentrations of compounds were tested at appropriate doses ranging from 30 μM to 0.6 nM. After incubation for 48 hours, the cells were lysed with 25 μL of lysis buffer containing protease inhibitors, and total ATXN3 protein levels were assessed by Mesoscale Discovery (MSD) assay developed with one pair of anti-ATXN3 antibodies. The capture and detect antibodies were raised in mouse and rabbit respectively. Anti-rabbit MSD-ST antibody was used for secondary antibody. ATXN3 recombinant protein was used for standards. The readouts were captured with 35 μL of MSD read buffer and multi-array 384-well high binding plates.

[3] = system: ATXN3-HiBiT protein; test: ATXN3 HiBiT assay (Nano Glo HiBiT luminescence); format: cell-based; settings: Kelly-ATXN3-HiBiT cells, luminescence read out 48 h after addition of the compound
Text: To monitor ATXN3 protein levels by luminescence, a Kelly-ATXN3-HiBiT cell line with homozygous knock-in of HiBiT at the C-terminus of the endogenous ATXN3 gene was used (knock-in of the HiBiT-tag coding sequence SEQ ID NO. 14: 5′[…]3′ into exon 11 of ATXN3 -position 1114 of ATXN3 RefSeq NM_004993.6). Manipulations of the Kelly-ATXN3-HiBiT cell line that result in downregulation of the ATXN3-HiBiT protein (through modulation of ATXN3-HiBiT pre-mRNA splicing) can be followed by monitoring the luminescence signal of the HiBiT tag using the Nano Glo HiBiT Lytic Detection System (Promega, #N3050). Kelly-ATXN3-HiBiT cells were maintained in RPMI 1640 w/Glutamax (Gibco, #61870010), 10% FBS (Sigma Aldrich, #F8687), 1% Penicillin/Streptomycin (Gibco, #15140-122) at 37° C., 5% CO2. To assess HiBiT-luminescence signal upon compound treatment, 2000 Kelly-ATXN3-HiBiT cells were seeded per well in 384 plate format. Compounds were added 24 h after seeding. ATXN3-HiBiT-luminescence signal was read out 48 h after addition of the compound using the Nano Glo HiBiT Lytic Detection System (Promega, #N3050) according to the manufacturer's instructions. To control for cell viability, an identically prepared sister plate was read out with the CellTiter-Glo® 2.0 Assay (Promega, #G9243) according to the manufacturer's instructions. Fold changes of ATXN3-HiBiT-luminescence and of CellTiter-Glo viability signals were calculated relative to a DMSO control condition.

SMILES	IC50 [1] [nM]	IC50 [2] [nM]	EC50 [3] [nM]
CC#Cc1c(C[C@H](C)N)oc2c(NCc3cccs3)c(F)c(Cl)nc12 [Compound 36]	501 to 5000	501 to 5000	501 to 5000
C[C@H](N)Cc1oc2c(NCc3cccs3)cc(Cl)nc2c1C#CC1CC1 [Compound 10, 2-[(S)-2-aminopropyl]-5-chloro-3-(2-cyclopropylethynyl)-7-thenylamino-1-oxa-4-azaindene]	501 to 5000	501 to 5000	501 to 5000
CCC#Cc1c(C[C@H](C)N)oc2c(NCc3ccco3)cc(Cl)nc12 [Compound 22, 2-[(S)-2-aminopropyl]-3-(1-butynyl)-5-chloro-7-(furfurylamino)-1-oxa-4-azaindene]	101 to 500	501 to 5000	501 to 5000
CC#Cc1c(C[C@H](C)N)oc2c(NCc3cccs3)cc(Cl)nc12 [Compound 1, 2-[(S)-2-aminopropyl]-5-chloro-3-(1-propynyl)-7-thenylamino-1-oxa-4-azaindene]	101 to 500	101 to 500	101 to 500
CC#Cc1cc(NCc2cccs2)c2oc(C[C@H](C)N)c(C#CC)c2n1 [Compound 28, 2-[(2S)-2-aminopropyl]-3,5-bis(prop-1-yn-1-yl)-N-(thiophen-2-ylmethyl)furo[3,2-b]pyridin-7-amine]	501 to 5000	501 to 5000	501 to 5000
CC#Cc1c(C[C@H](C)N)oc2c(NCc3ccco3)cc(Cl)nc12 [Compound 2, 2-[(S)-2-aminopropyl]-5-chloro-7-(furfurylamino)-3-(1-propynyl)-1-oxa-4-azaindene]	101 to 500	101 to 500	101 to 500
CCC#Cc1c(C[C@H](C)N)oc2c(NCc3cccs3)cc(Cl)nc12 [Compound 16, 2-[(S)-2-aminopropyl]-3-(1-butynyl)-5-chloro-7-thenylamino-1-oxa-4-azaindene]	101 to 500	101 to 500	101 to 500
C[C@H](N)Cc1oc2c(NCc3ccco3)cc(Cl)nc2c1C#CC1CC1 [Compound 9, 2-[(S)-2-aminopropyl]-5-chloro-3-(2-cyclopropylethynyl)-7-(furfurylamino)-1-oxa-4-azaindene]	501 to 5000	501 to 5000	501 to 5000
C[C@H](N)Cc1oc2c(NCc3ccco3)cc(Cl)nc2c1C#CCO [Compound 27, 3-{2-[(S)-2-aminopropyl]-5-chloro-7-(furfurylamino)-1-oxa-4-aza-3-indenyl}-2-propyn-1-ol]	501 to 5000	501 to 5000	501 to 5000

Further lines, results first:

IC50 [1] [nM]	IC50 [2] [nM]	EC50 [3] [nM]	SMILES
101 to 500	101 to 500	101 to 500	C[C@H](F)[C@H](N)Cc1oc2c(NCc3ccco3)cc(Cl)nc2c1C#CC1CC1 [Compound 7, 2-[(2R,3S)-2-amino-3-fluorobutyl]-5-chloro-3-(2-cyclopropylethynyl)-7-(furfurylamino)-1-oxa-4-azaindene]
101 to 500	101 to 500	101 to 500	CC#Cc1c(C[C@@H](N)CC(F)(F)F)oc2c(NCc3cccs3)cc(Cl)nc12 [Compound 4, 2-[(R)-2-amino-4,4,4-trifluorobutyl]-5-chloro-3-(1-propynyl)-7-thenylamino-1-oxa-4-azaindene]
101 to 500	101 to 500	101 to 500	CC#Cc1c(C[C@@H](N)CC(F)(F)F)oc2c(NCc3ccco3)cc(Cl)nc12 [Compound 3, 2-[(R)-2-amino-4,4,4-trifluorobutyl]-5-chloro-7-(furfurylamino)-3-(1-propynyl)-1-oxa-4-azaindene]
5000 to 10000	10000 to 40000	501 to 5000	CC#Cc1cc(NCc2cccs2)c2oc(C[C@@H](N)C3CC(F)(F)C3)c(C#CC)c2n1 [Compound 23, 2-[(R)-2-amino-2-(3,3-difluorocyclobutyl)ethyl]-3,5-bis(1-propynyl)-7-thenylamino-1-oxa-4-azaindene]
0.01 to 100	101 to 500	0.01 to 100	[2H]C([2H])(OC)[C@H](N)Cc1oc2c(NCc3cccs3)cc(Cl)nc2c1C#CC [Compound 46, 2-[(R)-2-amino-3-methoxy(3,3- ^2H2)propyl]-5-chloro-3-(1-propynyl)-7-thenylamino-1-oxa-4-azaindene]
0.01 to 100	101 to 500	0.01 to 100	CC#Cc1c(C[C@@H](N)[C@H](C)F)oc2c(NCc3ccccc3)cc(Cl)nc12 [Compound 11, 2-[(2R,3S)-2-amino-3-fluorobutyl]-7-benzylamino-5-chloro-3-(1-propynyl)-1-oxa-4-azaindene]
501 to 5000	501 to 5000	501 to 5000	CC#Cc1c(C[C@@H](N)C2CC2)oc2c(NCc3cccs3)cc(Cl)nc12 [Compound 24, 2-[(R)-2-amino-2-cyclopropylethyl]-5-chloro-3-(1-propynyl)-7-thenylamino-1-oxa-4-azaindene]
101 to 500	0.01 to 100	0.01 to 100	CC#Cc1c(C[C@@H](N)COC)oc2c(NCc3ccco3)cc(Cl)nc12 [Compound 39, 2-[(R)-2-amino-3-methoxypropyl]-5-chloro-7-(furfurylamino)-3-(1-propynyl)-1-oxa-4-azaindene]
101 to 500	101 to 500	101 to 500	CC#Cc1c(C[C@@H](N)COC)oc2c(NCc3nccs3)cc(Cl)nc12 [Compound 38, 2-[(R)-2-amino-3-methoxypropyl]-5-chloro-3-(1-propynyl)-7-{[(1,3-thiazol-2-yl)methyl]amino}-1-oxa-4-azaindene]
0.01 to 100	101 to 500	0.01 to 100	CC#Cc1c(C[C@@H](N)COC)oc2c(NCc3cccs3)cc(Cl)nc12 [Compound 21, 2-[(R)-2-amino-3-methoxypropyl]-5-chloro-3-(1-propynyl)-7-thenylamino-1-oxa-4-azaindene]
101 to 500	501 to 5000	101 to 500	C[C@H](F)[C@H](N)Cc1oc2c(NCc3cccs3)cc(Cl)nc2c1C#CC1CC1 [Compound 8, 2-[(2R,3S)-2-amino-3-fluorobutyl]-5-chloro-3-(2-cyclopropylethynyl)-7-thenylamino-1-oxa-4-azaindene]
0.01 to 100	0.01 to 100	0.01 to 100	CC#Cc1c(C[C@@H](N)[C@H](C)F)oc2c(NCc3ccco3)cc(Cl)nc12 [Compound 5, 2-[(2R,3S)-2-amino-3-fluorobutyl]-5-chloro-7-(furfurylamino)-3-(1-propynyl)-1-oxa-4-azaindene]
